This note sets out measurements from publication PMC12386745, “Benzofuran Derivatives with Antimicrobial and Anti-Inflammatory Activities from Penicillium crustosum SCNU-F0046” (International Journal of Molecular Sciences, 2025).

Converted amounts (≈) assume the structure as drawn. Like-named read-outs stand apart in the source and are kept apart here.

For one series, the system named is Fusarium oxysporum. As to the kind of experiment: Antimicrobial MIC, 96-well broth dilution. The format is cell-based. The settings on record: tested range 0.78–100 μg/mL, 48 h at 27 °C, means of three parallel experiments, read-out: minimum inhibitory concentration (MIC). The text has this:
(§1) In contrast, for fungal inhibition activity, aza-benzofuran compounds show lower activity than oxa-benzofuran compounds. […] In terms of antifungal activity, when compound 5 and 6 form hydroxyl groups at position C-6, their polarity […], making them more susceptible to penetrating fungal cell membranes through hydrophobic mechanisms.
(§2) The minimum inhibitory concentration (MIC) values of antimicrobial activity of compounds 1–4 against three different plant pathogenic […], including Penicillium italicum, Fusarium oxysporum and Colletotrichum musae, and three human pathogenic bacteria, including Salmonella typhimurium (ATCC 6539), Escherichia coli (ATCC 25922) and Staphylococcus aureus (ATCC 12598), were determined via serial dilution technique employing 96-well microtiter plates. In brief, the bacterial cell suspension was adjusted to an inoculum density of 5 × 10^5 cfu/mL by comparison with a MacFarland standard before use. The fungal thallus concentration was adjusted to 1 × 10^6 cfu/mL. The tested compounds in dimethyl sulfoxide (DMSO) were added to PDB/MH broth medium to obtain a series of final concentrations of 100, 50, 25, 12.5, 6.25, 3.13, 1.57, 0.78 μg/mL. DMSO and carbendazim/ciprofloxacin served as negative and positive controls, respectively. The antifungal plates were incubated for 48 h at 27 °C, and the antibacterial plates were incubated for 24 h at 27 °C. Ten microliters of resazurin dissolved in DMSO at 100 μg/mL was added to each well of the microplate, followed by incubation at 27 °C for 3 h. We determined the MIC values by observing color changes using the visual endpoint method. For each parallel experiment, three replicates were measured.
On the technique in general: In broth dilution the organism is exposed to a series of concentrations in liquid medium.

The next series relates to Colletotrichum musae. As to the kind of experiment: Antimicrobial MIC, 96-well broth dilution. The conditions noted are these: tested range 0.78–100 μg/mL, 48 h at 27 °C, means of three parallel experiments; for MIC: 48 h, read-out: minimum inhibitory concentration (MIC). The format is cell-based.
Description: as §1, §2

A further series relates to Penicillium italicum. As to the kind of experiment: Antimicrobial MIC, 96-well broth dilution. The conditions noted are these: tested range 0.78–100 μg/mL, 48 h at 27 °C, means of three parallel experiments, read-out: minimum inhibitory concentration (MIC). It is filed as cell-based.
Description: as §1, §2

Series [1] concerns LPS-stimulated RAW 264.7 cells. As to the kind of experiment: Inhibition of NO production (Griess reagent) in LPS-stimulated macrophages. It is filed as cell-based, mouse. The settings on record: 4 h pretreatment, 1 μg/mL LPS for 24 h, mean ± SD, three independent experiments. How it is done:
(§3) The anti-inflammatory activities of compounds 1–4 were evaluated by assessing the inhibition of nitric oxide (NO) production in lipopolysaccharide (LPS)-stimulated murine macrophage RAW 264.7 cells. […] In addition, we also tested the cytotoxicity of compounds 1–4, and cytotoxicity was assessed independently of LPS stimulation.
The nitrite concentration in the culture medium was measured using the Griess reagent, as previously reported, with slight modifications. The mouse macrophage cell line RAW 264.7 cells were purchased from the Shanghai Institutes for Biological Sciences and cultured in DMEM (high-glucose) medium supplemented with 10% (v/v) fetal bovine serum, 100 μg·mL^−1 penicillin and streptomycin, and 10 mM HEPES at 37 °C in a 5% CO2 atmosphere. Cells were pretreated with different samples dissolved in serum-free culture medium containing 0.5% DMSO (10, 5, 2.5, 1.25, and 0.625 μM) for 4 h, followed by stimulation with 1 μg·mL^−1 LPS for 24 h. Then, 50 μL of cell culture medium was mixed with 100 μL of Griess reagent I and II and incubated at room temperature for 10 min with horizontal shaking, after which the absorbance at 540 nm was measured in a microplate reader. Indomethacin was used as a positive control and was purchased from Sigma-Aldrich (St. Louis, MI, USA) Co. Wells with DMSO were used as a negative control (final DMSO concentration was 0.1%). The NO production inhibition rate was calculated using the flowing formula: NO production inhibition rate (%) =LPS group−Compound group/LPS group−DMSO group×100
IC50 is the concentration of the compound that inhibits 50% of NO production relative to the LPS group. All assays were performed in triplicate. The inhibition rates were calculated and plotted versus test concentrations to afford the IC50 (±SD) for three independent tests. Data were analyzed using SPSS 26.0 software. p < 0.05 was considered statistically significant.

Another series is described as follows: Cytotoxicity, MTT assay. The settings on record: mouse. It is filed as cell-based. How it is done:
as §3
Cell viability was evaluated using MTT (3-(4,5-Dimethylthiazol-2-yl)-2,5-diphenyltetrazolium bromide) assay. RAW 264.7 cells were seeded in 96-well plates at a density of 5 × 10^3 cells per well and incubated overnight. Cells were incubated with tested compounds (DMSO as solvent) at 37 °C for 72 h. Subsequently, 50 μL of MTT/medium solution (0.5 mg/mL) was added to each well, and the cells were incubated for 1 h at 37 °C. After removing the MTT/medium, 100 μL of DMSO was added to each well. The plate was shaken to dissolve the precipitate, and activity was measured at 540 nm using a microplate reader. Cell viability was calculated using the following formula: Cell viability/% = (Absorbance of treated cells − Absorbance of blank control)/(Absorbance of negative control − Absorbance of blank control) × 100. The half-maximal inhibitory concentration (IC50) was calculated with Origin 8 Pro.
For orientation: Tetrazolium assays rely on reduction of a dye to a coloured formazan, in cell work by metabolically active cells.

The subject of series [2] is Salmonella typhimurium (ATCC 6539). Briefly: Antimicrobial MIC, 96-well broth dilution. The format is cell-based. The settings on record: Salmonella enterica, 24 h, read-out: minimum inhibitory concentration (MIC).
Description: as §1, §2

The subject of series [3] is Escherichia coli (ATCC 25922). As to the kind of experiment: Antimicrobial MIC, 96-well broth dilution. It is filed as cell-based. The conditions noted are these: ATCC25922, tested range 0.78–100 μg/mL, 24 h at 27 °C, means of three parallel experiments, read-out: minimum inhibitory concentration (MIC).
Description: as §1, §2

The subject of series [4] is Staphylococcus aureus (ATCC 12598). Briefly: Antimicrobial MIC, 96-well broth dilution. It is filed as cell-based. The conditions noted are these: read-out: minimum inhibitory concentration (MIC).
Description: as §1, §2

Setting [5] is: Mus musculus, RAW264.7, RAW 264.7 cells.
The mark [6] stands for this setting: ATCC12598, tested range 0.78–100 μg/mL, 24 h at 27 °C, means of three parallel experiments.
Where [7] appears, read: RAW 264.7 cells, MTT, 72 h, without LPS stimulation, read-out: Cytotoxicity (CC50).

As to `COC(=O)Nc1nc2ccccc2[nH]1` [Carbendazim, reference compound], the MIC with Fusarium oxysporum came to 1.56 µg/mL (≈ 8.16 µM); in the series on Colletotrichum musae it was 0.78 µg/mL (≈ 4.08 µM); in the series with Penicillium italicum it was 0.78 µg/mL (≈ 4.08 µM).

In the case of `Cc1ccc(-c2cc(C(F)(F)F)nn2-c2ccc(S(N)(=O)=O)cc2)cc1` [Celecoxib, reference compound], the IC50 (usually the concentration that gives 50% inhibition) in series [1] (setting [5]) came out at 32.1 ± 1.7 µM. The CC50 (as a rule, the concentration at which the toxic effect on the cells reaches its halfway point) at 72 h in “Cytotoxicity, MTT assay” is over 50 µM.

Consider `O=C(O)c1cn(C2CC2)c2cc(N3CCNCC3)c(F)cc2c1=O` [Ciprofloxacin, reference compound], for which the MIC is 0.2 µg/mL (≈ 0.604 µM) in series [2], 0.8 µg/mL (≈ 2.41 µM) in series [3] and 0.1 µg/mL (≈ 0.302 µM) in series [4] (setting [6]).

Take `Cc1cc2ccc3cc(C(C)(C)O)oc3c2cn1` [Compound 1]: the IC50 in series [1] (setting [5]) was 17.3 µM; in series [1] (RAW 264.7 cells) it was 17.3 ± 1.6 µM. In addition, the MIC in series [2] came to 12.5 µg/mL (≈ 51.8 µM); in the series with Fusarium oxysporum, 50 µg/mL (≈ 207 µM); in the series with Colletotrichum musae it was 50 µg/mL (≈ 207 µM); with Penicillium italicum, 50 µg/mL (≈ 207 µM); in series [3], 25 µg/mL (≈ 104 µM); in series [4] (ATCC12598, 24 h), 12.5 µg/mL (≈ 51.8 µM). Besides, the CC50 at 72 h in the series “Cytotoxicity, MTT assay” (setting [7]) was over 50 µM.

For `Cc1cc2ccc3c(c2cn1)OC(C(C)(C)O)C3` (centres unmarked) [Compound 2], the half-maximal inhibitory concentration (IC50) in series [1] (setting [5]) was 31.5 ± 2.3 µM. Also, the MIC in series [2] came out at 50 µg/mL (≈ 206 µM); in the series with Fusarium oxysporum, 50 µg/mL (≈ 206 µM); in the series on Colletotrichum musae it was 25 µg/mL (≈ 103 µM); in the series with Penicillium italicum it was 50 µg/mL (≈ 206 µM); in series [3], 50 µg/mL (≈ 206 µM); in series [4] (setting [6]) it was 25 µg/mL (≈ 103 µM). The CC50 at 72 h in “Cytotoxicity, MTT assay” (setting [7]) is over 50 µM.

Consider `Cc1cc2ccc3c(c2cn1)O[C@@](O)(C(C)C)C3=O` [Compound 3, TMC-120 C], for which, in the series “Cytotoxicity, MTT assay” (setting [7]), the CC50 at 72 h was over 50 µM.

`CC(C)=C1Oc2c(ccc3cc(C)ncc23)C1=O` [Compound 4, TMC-120 B]: in “Cytotoxicity, MTT assay” (setting [7]), the 50% cytotoxic concentration (CC50) at 72 h is over 50 µM.

With `CC(C)(O)C1Cc2ccc(C=CC(=O)O)c(CO)c2O1` (centres unmarked) [Compound 5], the MIC in series [2] is 50 µg/mL (≈ 180 µM); in the series with Fusarium oxysporum it was 50 µg/mL (≈ 180 µM); in the series on Colletotrichum musae, 12.5 to 25 µg/mL (≈ 44.9 to 89.8 µM); with Penicillium italicum it was 12.5 µg/mL (≈ 44.9 µM); in series [3], 50 µg/mL (≈ 180 µM); in series [4] (setting [6]), 50 µg/mL (≈ 180 µM). Further, the “minimum inhibitory concentration (MIC)” value with Colletotrichum musae was 25 µg/mL (≈ 89.8 µM).

For the compound `CC(C)C1(O)Oc2c(ccc(CO)c2CO)C1=O` (centres unmarked) [Compound 6], the MIC in series [2] is 50 µg/mL (≈ 198 µM); in the series on Fusarium oxysporum it was 50 µg/mL (≈ 198 µM); in the series on Colletotrichum musae it was 12.5 to 25 µg/mL (≈ 49.6 to 99.1 µM); in the series with Penicillium italicum it was 12.5 µg/mL (≈ 49.6 µM); in series [3], 100 µg/mL (≈ 396 µM); in series [4] (setting [6]) it was 50 µg/mL (≈ 198 µM). The “minimum inhibitory concentration (MIC)” value with Colletotrichum musae is 12.5 µg/mL (≈ 49.6 µM).
